In US20240279214A1, “ALPHA4 BETA7 INEGRIN ANTAGONISTS AND USES THEREOF” (XinThera, Inc., priority 2022, published 2024):

These compounds were tested against T1, a4b1 integrin interaction with VCAM-1 (Homo sapiens, UniProt P05556+P13612) (assay: a4b1 Cell Capture Assay (Jurkat cells on VCAM-1 Fc coated plates)). Settings: 50% human serum, 1 mM MgCl2, 1 hour incubation, CellTiter-Glo luminescence.
T1 construct: capture of a4b1 integrin expressing cells Jurkat; endogenous in cells; host or cells: Jurkat
T1 sequence (P13612 34-1032): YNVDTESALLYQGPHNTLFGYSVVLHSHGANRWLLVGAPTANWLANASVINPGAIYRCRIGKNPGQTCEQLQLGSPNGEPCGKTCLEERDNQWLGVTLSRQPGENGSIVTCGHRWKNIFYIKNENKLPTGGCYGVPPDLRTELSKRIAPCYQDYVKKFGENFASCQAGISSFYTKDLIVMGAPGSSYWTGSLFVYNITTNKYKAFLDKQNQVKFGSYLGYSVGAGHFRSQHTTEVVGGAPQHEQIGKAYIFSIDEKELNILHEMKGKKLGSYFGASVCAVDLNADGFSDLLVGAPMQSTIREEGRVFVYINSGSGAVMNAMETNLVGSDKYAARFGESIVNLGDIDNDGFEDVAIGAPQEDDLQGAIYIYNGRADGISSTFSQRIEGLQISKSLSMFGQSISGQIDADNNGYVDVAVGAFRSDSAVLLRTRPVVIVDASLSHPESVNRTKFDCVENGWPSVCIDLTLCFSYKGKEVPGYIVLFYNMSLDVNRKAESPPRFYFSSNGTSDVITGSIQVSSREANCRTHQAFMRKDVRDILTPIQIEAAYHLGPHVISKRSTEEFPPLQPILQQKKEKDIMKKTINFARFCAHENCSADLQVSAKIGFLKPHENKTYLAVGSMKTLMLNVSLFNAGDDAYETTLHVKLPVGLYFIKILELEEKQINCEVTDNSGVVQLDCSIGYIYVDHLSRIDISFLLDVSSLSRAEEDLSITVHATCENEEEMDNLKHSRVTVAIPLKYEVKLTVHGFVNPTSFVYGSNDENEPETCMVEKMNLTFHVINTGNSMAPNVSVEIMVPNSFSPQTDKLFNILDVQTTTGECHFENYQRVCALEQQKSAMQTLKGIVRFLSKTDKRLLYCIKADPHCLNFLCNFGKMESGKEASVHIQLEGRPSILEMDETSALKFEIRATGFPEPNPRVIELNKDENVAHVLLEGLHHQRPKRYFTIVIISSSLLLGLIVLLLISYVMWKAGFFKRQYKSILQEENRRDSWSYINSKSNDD
T1 sequence (P05556 21-798): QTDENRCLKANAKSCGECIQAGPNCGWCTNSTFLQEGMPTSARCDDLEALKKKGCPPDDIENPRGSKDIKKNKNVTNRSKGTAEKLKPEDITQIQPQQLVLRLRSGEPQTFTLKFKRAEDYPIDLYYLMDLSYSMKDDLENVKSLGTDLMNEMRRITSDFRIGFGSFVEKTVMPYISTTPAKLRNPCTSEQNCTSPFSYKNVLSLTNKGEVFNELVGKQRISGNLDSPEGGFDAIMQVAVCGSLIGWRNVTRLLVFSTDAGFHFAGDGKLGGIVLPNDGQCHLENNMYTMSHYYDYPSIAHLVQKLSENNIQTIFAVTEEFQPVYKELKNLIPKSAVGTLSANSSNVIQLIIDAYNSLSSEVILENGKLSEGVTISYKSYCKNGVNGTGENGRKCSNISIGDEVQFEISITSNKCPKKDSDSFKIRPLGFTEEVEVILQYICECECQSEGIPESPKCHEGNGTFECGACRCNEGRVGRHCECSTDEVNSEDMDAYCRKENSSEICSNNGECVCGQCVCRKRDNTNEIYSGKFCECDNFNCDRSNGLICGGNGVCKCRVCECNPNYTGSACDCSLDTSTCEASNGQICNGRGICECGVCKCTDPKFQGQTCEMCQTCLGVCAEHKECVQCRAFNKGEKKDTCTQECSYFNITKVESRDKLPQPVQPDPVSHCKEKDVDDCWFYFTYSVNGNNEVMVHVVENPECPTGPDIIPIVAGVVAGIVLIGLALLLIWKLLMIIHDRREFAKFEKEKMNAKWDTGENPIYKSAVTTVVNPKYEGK
Format: cell-based
Protocol: The potency of inhibitors in preventing a4b1 integrin interaction with VCAM-1 was measured by monitoring the capture of a4b1 integrin expressing cells Jurkat on recombinant human VCAM-1 Fc chimera protein-coated plates. The protein was a fusion between human VCAM-1 (Phe25-Glu698) Accession #P19320, Accession #AAY82472) and human IgG1 (Pro100-Lys330)] (R&D Systems, Catalog #862-VC). 96-well plates (Thermofisher, Catalog #136102) were coated with the recombinant protein by dispensing 100 μL of 0.25 μg/mL per well. After a quick spin to settle down the coating solution using plate centrifuge, plates were incubated overnight at 4° C. in a moisture chamber. On Day 2, the plates were washed with PBS using a Bluecatbio Blue®Washer (GentleSpin wash, 3 cycles, pressure=1, volume 150 uL). Blocking solution (1.0% BSA in PBS, Sigma, Catalog #A7979) was then added at 200 uL/well, and the plates were quickly spun to settle down blocking buffer and incubated in cell culture incubator at 37° C. and 5% CO2 for 1 hour. The plates were then washed with 0.1% BSA in PBS using a Bluecatbio Blue®Washer (GentleSpin wash, 3 cycles, pressure=1, volume 150 uL). Jurkat cells suspended in assay medium (1 mM MgCl2 25 mM HEPES and 50% human serum, Sigma, Catalog #H4522) at a density of 0.5×10^6 cells/mL were added at 100 uL/well. Each compound evaluated was prepared as a DMSO stock solution. Test compounds were evaluated with a 9-point serial dilution curve and were added to the plates using a Tecan D300e Digital dispenser. Each titration curves were performed in triplicate on the same plate, and most of compounds were retested in different dates multiple times. The plates were shaken at 300 rpm on orbital plate shaker for 3 minutes to mix the cells and compounds, quickly spun to settle the cells and solution, and incubated in cell culture incubator at 37° C. and 5% CO2. After 1 hour incubation, the unbound cells were washed away with RPMI1640 medium supplemented with 1 mM MgCl2 and 1% BSA) (wash buffer) using a Bluecatbio Blue®Washer (MagbeadsSpin wash, 1 cycle, pressure 1, volume=150 uL). After wash buffer removal, A mixture of wash buffer/CellTiter-Glo® Reagent (Pormega, catalog #G7573) at 1:1 (V/V) was added at volume of 100 uL to each well. The plates were placed in a chamber at 25° C. and incubated for 30 minutes. Luminescence was recorded using a Envision plate reader 2105 according to CellTiter-Glo protocol.
The mean luminescence signals from negative control wells without VCAM-1 coating and compound treatment (cells only) was defined as 100% binding inhibition, and the mean luminescence signals from positive control wells with VCAM-1 coating but without compound treatment (VCAM-1 and cells only) was defined as 0% binding inhibition. The luminescence signals from other compound treated wells were normalized in percentage scale accordingly. The normalized mean % inhibition data were plotted against logarithmic compound concentration in nanomolar and were fitted with 4-parameter logistic model to obtain IC50 for each compound.

EC50 [nM] | SMILES
880 | Cc1cccc2c1-c1cc(c(F)c(C(F)(F)F)c1)[C@H](CC(=O)O)NC(=O)[C@@H](n1cc(CCN3CC(F)C3)c(C(F)(F)F)cc1=O)c1cc(Cl)cc(c1)O2 (relative stereo) [Example 15, [(14R*,17S)-11-chloro-19-fluoro-14-{5-[2-(3-fluoroazetidin-1-yl)ethyl]-2-oxo-4-(trifluoromethyl)pyridin-1-yl}-3-methyl-15-oxo-20-(trifluoromethyl)-8-oxa-16-azatetracyclo[16.3.1.1^{9,13}.0^{2,7}]tricosa-1(22),2(7),3,5,9,11,13(23),18,20-nonaen-17-yl]acetic acid]
689 | Cc1cc(C)c2c(c1)Oc1cccc(c1)[C@H](n1cc(CCCN(C)C)c(C(F)(F)F)cc1=O)C(=O)N[C@@H](CC(=O)O)c1cn-2nc1C(F)(F)F (relative stereo) [Example 18, [(13S,16R*)-16-{5-[3-(dimethylamino)propyl]-2-oxo-4-(trifluoromethyl)pyridin-1-yl}-5,7-dimethyl-15-oxo-11-(trifluoromethyl)-2-oxa-9,10,14-triazatetracyclo[15.3.1.1^{9,12}.0^{3,8}]docosa-1(20),3(8),4,6,10,12(22),17(21),18-octaen-13-yl]acetic acid]
4580 | Cc1cc(Cl)cc2c1-c1cc(c(F)c(C(F)(F)F)c1)[C@H](CC(=O)O)NC(=O)[C@@H](n1cc(CCN3CC(F)C3)c(C(F)(F)F)cc1=O)c1cccc(c1)O2 (single isomer, unassigned) [Example 11]
359 | Cc1cc2cc(c1F)[C@H](CC(=O)O)NC(=O)[C@@H](n1cc(CCN3CC(F)C3)c(C(F)(F)F)cc1=O)c1cc(Cl)cc(c1)Oc1cccc(C)c1-2 (single isomer, unassigned) [Example 3]
61.5 | Cc1cc2cc(c1F)[C@H](CC(=O)O)NC(=O)[C@@H](n1cc(CCN3CC(F)C3)c(C(F)(F)F)cc1=O)c1cc(ccc1F)Oc1cccc(C)c1-2 (relative stereo) [Example 7, [(14R*,17S)-12,19-difluoro-14-{5-[2-(3-fluoroazetidin-1-yl)ethyl]-2-oxo-4-(trifluoromethyl)pyridin-1-yl}-3,20-dimethyl-15-oxo-8-oxa-16-azatetracyclo[16.3.1.1^{9,13}.0^{2,7}]tricosa-1(21),2(7),3,5,9(23),10,12,18(22),19-nonaen-17-yl]acetic acid]
2080 | Cc1cc2cc(c1F)[C@H](CC(=O)O)NC(=O)[C@@H](n1cc(CCN3CC(F)C3)c(C(F)(F)F)cc1=O)c1cccc(c1)Oc1cccc(C)c1-2 (relative stereo) [Example 1, rel-2-((5S,8S)-1^4-fluoro-5-(5-(2-(3-fluoroazetidin-1-yl)ethyl)-2-oxo-4-(trifluoromethyl)pyridin-1(2H)-yl)-1^5,2^6-dimethyl-6-oxo-3-oxa-7-aza-1,4(1,3),2(1,2)-tribenzenacyclooctaphane-8-yl)acetic acid]
11900 | Cc1cc(C2CC2)cc2c1-c1cc(c(F)c(C(F)(F)F)c1)[C@H](CC(=O)O)NC(=O)[C@@H](n1cc(CCN3CC(F)C3)c(C(F)(F)F)cc1=O)c1cccc(c1)O2 (relative stereo) [Example 10, [(14R*,17S)-5-cyclopropyl-19-fluoro-14-{5-[2-(3-fluoroazetidin-1-yl)ethyl]-2-oxo-4-(trifluoromethyl)pyridin-1-yl}-3-methyl-15-oxo-20-(trifluoromethyl)-8-oxa-16-azatetracyclo[16.3.1.1^{9,13}.0^{2,7}]tricosa-1(21),2(7),3,5,9,11,13(23),18(22),19-nonaen-17-yl]acetic acid]
